According to patent US4522815A, “Anthracycline glycosides” (priority 1982, dated 1985):
Values after ≈ are worked out from the molar mass of the structure shown.

What was measured:
[1] = test system: HeLa cells; experiment: Colony inhibition test against HeLa cells in vitro (cloning efficiency), treatment for 24 hrs; type: cell-based
[2] = Antitumor activity against ascitic P388 leukemia in CDF-1 mice, treatment i.p. on day 1; type: in vivo; settings: mouse, in vivo, ip, CDF-1 mice; read-out: Maximal Tolerated Dose (Mx TD)
Description: (§1) The primary screening […] was carried out in CDF-1 mice bearing ascitic P388 leukemia (10^6 cells/mouse). Both IIa and IIc were suspended in 10%. Tween 80 and injected intraperitoneally.
(§2) Results of the primary screening "in vivo" carried out in CDF-1 mice bearing P388 ascitic leukemia and treated i.p. the day after tumor transplantation, are reported in Table 5.
(§3) Antitumor activity against ascitic P388 leukekemia.
(§4) Treatment i.p. on day 1.
(§5) ^a median survival time; % over untreated controls
(§6) ^b long term survivors (≥ 60 days)
(§7) ^c evaluated on the basis of autoptic findings on dead mice
(§8) ^d data of two experiments (range)
(§9) ^e date of three experiments (range)
(§10) Antitumor activity of Ib and Id against ascitic P388
as §4

[3] = test system: ascitic P388 leukemia; experiment: as above; type: in vivo; settings: for LTS, long term survivors (≥ 60 days) / T/C, median survival time; % over untreated controls / Toxic deaths (autoptic findings on dead mice): Table 2
Description: as §1, §2, §3, §4, §5, §6, §7, §8, §9, §10, §4

## COc1cccc2c1C(=O)c1c(O)c3c(c(O)c1C2=O)C[C@@](O)(C(C)=O)C[C@@H]3O[C@H]1C=C[C@@H](O)[C@H](C)O1 [Compound IIa, 7-0-(2,3,6-trideoxy-α-L-erythro-hex-2-enopyranosyl)-daunomycinone]
[1]; HeLa cells cloning efficiency, vs DNR
  times less cytotoxic than DNR: about 25 times
[1]; Homo sapiens, HeLa, Table 1, 1.5 ng/ml, 24 hrs, read-out: No of colonies, % of untreated controls
  activity at 0.0015 µg/mL: 120%
[1]; Homo sapiens, HeLa, Table 1, 6.2 ng/ml, 24 hrs, read-out: No of colonies, % of untreated controls
  activity at 0.0062 µg/mL: 127%
[1]; Homo sapiens, HeLa, Table 1, 25 ng/ml, 24 hrs, read-out: No of colonies, % of untreated controls
  activity at 0.025 µg/mL: 143%
[1]; Homo sapiens, HeLa, Table 1, 100 ng/ml, 24 hrs, read-out: No of colonies, % of untreated controls
  activity at 0.1 µg/mL: 136%
[1]; Homo sapiens, HeLa, Table 1, 400 ng/ml, 24 hrs, read-out: No of colonies, % of untreated controls
  activity at 0.4 µg/mL: 146%
[1]; Homo sapiens, Table 1, HeLa colony inhibition, 24 hrs, read-out: ID50 (the source's name)
  IC50: 0.4 µg/mL (≈ 0.784 µM)
[2]
  MTD: 100 mg/kg
[3]; 75 mg/kg i.p. day 1
  LTS, long term survivors (≥ 60 days): 0/5
  T/C, median survival time; % over untreated controls: 120%
  Toxic deaths (autoptic findings on dead mice): 0/5
[3]; 100 mg/kg i.p. day 1
  LTS, long term survivors (≥ 60 days): 0/10
  T/C, median survival time; % over untreated controls: 90%
  Toxic deaths (autoptic findings on dead mice): 1/10
[3]; ascitic P388, i.p.
  toxicity and potency vs parent drugs DNR and DX: less toxic and potent than the parent drugs DNR and DX
[3]; i.p. day 1, IIa: two doses tested incl. Mx TD
  antitumor activity on P388 ascitic leukemia: inactive
